Test results taken from ChEMBL document CHEMBL1201862, “PubChem BioAssay data set” (2004).
One block for each compound: values may come before it. Activity calls are given as the source filed them.

Columns and labels:
[1] = target: T1, Heat shock factor protein 1 (Mus musculus, UniProt P38532); experiment: decrease of HSF1-responsive luciferase luminescence – cell-based, NIH3T3, dose retest, confirmation (AID 2382); assay type: functional;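 further: NIH3T3 fibroblasts with HSF1-driven luciferase reporter stressed by proteasome inhibitor MG132; luminescence from HSF1-driven luciferase expression after 8 hours of MG132 stress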
T1 sequence (P38532 whole entry): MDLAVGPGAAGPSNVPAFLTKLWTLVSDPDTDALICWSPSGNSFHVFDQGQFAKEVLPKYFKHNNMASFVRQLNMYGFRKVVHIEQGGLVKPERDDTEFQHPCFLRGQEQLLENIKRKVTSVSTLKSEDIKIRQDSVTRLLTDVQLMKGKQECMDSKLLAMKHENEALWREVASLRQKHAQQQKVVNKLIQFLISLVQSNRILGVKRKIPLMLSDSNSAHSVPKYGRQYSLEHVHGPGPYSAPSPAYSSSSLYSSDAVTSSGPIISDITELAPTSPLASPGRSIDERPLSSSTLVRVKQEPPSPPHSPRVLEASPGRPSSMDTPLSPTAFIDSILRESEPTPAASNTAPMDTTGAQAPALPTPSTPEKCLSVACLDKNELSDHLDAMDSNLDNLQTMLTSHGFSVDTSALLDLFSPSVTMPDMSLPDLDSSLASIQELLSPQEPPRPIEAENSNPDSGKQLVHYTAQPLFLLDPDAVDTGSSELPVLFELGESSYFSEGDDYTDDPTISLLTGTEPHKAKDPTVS

[2] = target: Cytochrome P450 3A4 (Homo sapiens, UniProt P08684);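 further: CYP3A4 tested as one member of a cytochrome P450 panel screen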
[3] = target: Cytochrome P450 2D6 (Homo sapiens, UniProt P10635)
[4] = viability of uninfected HEp-2 cells – cell-based, HTS, cytotoxicity control for RSV inhibitor project, dose response (AID 2410); assay type: functional; conditions: human respiratory syncytial virus
[5] = target: Cytochrome P450 2C9 (Homo sapiens, UniProt P11712)
[6] = target: Cytochrome P450 2C19 (Homo sapiens, UniProt P33261); experiment: Cytochrome panel assay with activity outcomes. Panel member name: p450-cyp2c19 Compounds with AC50 equal or less than 10 uM are considered active; assay type: functional; conditions: read-out: AC50
[7] = target: T2, Cytochrome P450 1A2 (Homo sapiens, UniProt P05177);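 further: PubChem cytochrome P450 panel assay, CYP1A2 panel member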
T2 sequence (P05177 whole entry): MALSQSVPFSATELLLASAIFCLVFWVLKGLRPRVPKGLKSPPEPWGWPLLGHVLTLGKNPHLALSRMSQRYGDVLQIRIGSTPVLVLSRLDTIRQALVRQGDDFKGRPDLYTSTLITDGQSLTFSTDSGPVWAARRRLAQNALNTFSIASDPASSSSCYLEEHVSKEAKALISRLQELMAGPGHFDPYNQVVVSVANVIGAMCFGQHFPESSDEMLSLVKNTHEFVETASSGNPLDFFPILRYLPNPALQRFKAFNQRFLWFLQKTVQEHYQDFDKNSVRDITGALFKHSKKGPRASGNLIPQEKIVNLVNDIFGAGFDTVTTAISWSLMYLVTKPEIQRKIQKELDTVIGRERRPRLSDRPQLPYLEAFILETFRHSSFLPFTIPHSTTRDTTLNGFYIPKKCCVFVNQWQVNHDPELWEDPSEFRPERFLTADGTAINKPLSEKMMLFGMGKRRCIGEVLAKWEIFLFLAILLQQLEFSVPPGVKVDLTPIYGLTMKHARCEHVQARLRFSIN

[8] = Trypanosoma cruzi growth suppression in host cells – NIH3T3 host cells, beta-gal luminescence, confirmation (AID 2044); assay type: functional, cell-based;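 further: intracellular parasites grown in NIH/3T3 mouse fibroblasts as host cells; luminescent beta-galactosidase reporter signal from transgenic T. cruzi replicating inside host cells; inhibitors lower the luminescence signal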
[9] = NIH3T3 cell viability loss – ATP luminescence, mouse fibroblasts, counter-screen, dose response (AID 2010); assay type: functional, cell-based;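 further: cells exposed to compound for about 90 hours before reading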

Sequence of Cytochrome P450 3A4 (P08684 whole entry): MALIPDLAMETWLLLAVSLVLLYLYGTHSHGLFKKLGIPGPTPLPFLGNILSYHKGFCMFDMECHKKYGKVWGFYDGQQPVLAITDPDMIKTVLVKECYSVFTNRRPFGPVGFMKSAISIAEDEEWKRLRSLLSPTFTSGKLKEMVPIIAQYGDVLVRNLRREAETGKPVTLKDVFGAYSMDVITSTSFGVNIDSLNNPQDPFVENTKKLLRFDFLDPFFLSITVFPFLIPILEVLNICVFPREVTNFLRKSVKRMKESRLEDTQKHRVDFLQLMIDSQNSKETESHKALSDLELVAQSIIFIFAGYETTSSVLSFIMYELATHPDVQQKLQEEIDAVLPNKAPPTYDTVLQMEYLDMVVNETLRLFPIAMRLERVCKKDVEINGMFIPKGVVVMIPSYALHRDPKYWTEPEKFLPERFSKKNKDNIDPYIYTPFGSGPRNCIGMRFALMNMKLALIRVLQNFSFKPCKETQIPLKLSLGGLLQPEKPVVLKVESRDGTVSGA
Sequence of Cytochrome P450 2C9 (P11712 whole entry): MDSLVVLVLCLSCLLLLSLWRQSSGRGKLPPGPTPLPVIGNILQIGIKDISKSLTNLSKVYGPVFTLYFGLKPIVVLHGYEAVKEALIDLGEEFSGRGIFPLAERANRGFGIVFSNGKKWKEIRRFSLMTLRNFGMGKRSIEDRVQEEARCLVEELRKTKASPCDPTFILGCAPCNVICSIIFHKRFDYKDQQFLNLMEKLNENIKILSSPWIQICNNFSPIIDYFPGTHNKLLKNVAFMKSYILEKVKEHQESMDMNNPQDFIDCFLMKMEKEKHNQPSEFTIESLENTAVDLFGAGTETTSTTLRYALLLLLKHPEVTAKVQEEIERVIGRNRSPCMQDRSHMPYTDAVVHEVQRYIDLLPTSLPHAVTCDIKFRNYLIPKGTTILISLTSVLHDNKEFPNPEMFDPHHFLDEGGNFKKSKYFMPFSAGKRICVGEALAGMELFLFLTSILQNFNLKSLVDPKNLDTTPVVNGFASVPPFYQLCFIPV
Sequence of Cytochrome P450 2D6 (P10635 whole entry): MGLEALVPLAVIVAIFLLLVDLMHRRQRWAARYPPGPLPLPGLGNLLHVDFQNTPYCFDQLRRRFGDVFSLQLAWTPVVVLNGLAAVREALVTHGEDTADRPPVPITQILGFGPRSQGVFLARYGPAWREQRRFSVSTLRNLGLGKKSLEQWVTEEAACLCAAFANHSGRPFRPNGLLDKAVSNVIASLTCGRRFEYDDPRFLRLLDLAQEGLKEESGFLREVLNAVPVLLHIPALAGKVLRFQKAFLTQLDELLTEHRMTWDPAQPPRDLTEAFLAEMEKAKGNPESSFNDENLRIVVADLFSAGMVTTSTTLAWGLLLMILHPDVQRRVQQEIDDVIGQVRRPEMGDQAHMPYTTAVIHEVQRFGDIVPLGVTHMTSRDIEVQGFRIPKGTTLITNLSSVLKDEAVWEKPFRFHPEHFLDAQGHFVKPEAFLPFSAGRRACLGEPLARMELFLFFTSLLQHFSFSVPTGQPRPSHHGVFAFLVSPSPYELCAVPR
Sequence of Cytochrome P450 2C19 (P33261 whole entry): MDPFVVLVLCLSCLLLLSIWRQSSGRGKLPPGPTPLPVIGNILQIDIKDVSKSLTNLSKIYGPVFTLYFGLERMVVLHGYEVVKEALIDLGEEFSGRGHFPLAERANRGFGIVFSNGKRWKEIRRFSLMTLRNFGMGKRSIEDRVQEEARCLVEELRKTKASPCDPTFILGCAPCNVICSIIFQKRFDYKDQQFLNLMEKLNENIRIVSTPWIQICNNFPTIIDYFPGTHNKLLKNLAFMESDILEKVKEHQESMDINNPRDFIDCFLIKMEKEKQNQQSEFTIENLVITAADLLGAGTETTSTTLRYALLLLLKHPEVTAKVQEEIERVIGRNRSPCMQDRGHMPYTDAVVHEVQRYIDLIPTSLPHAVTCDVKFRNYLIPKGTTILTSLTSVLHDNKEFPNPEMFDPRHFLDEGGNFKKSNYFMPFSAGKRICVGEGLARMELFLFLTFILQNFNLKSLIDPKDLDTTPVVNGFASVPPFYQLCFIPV

SMILES: CC(C)(C)c1ccc(OC(=O)c2cccnc2)cc1
EC50 [1]: > 195 µM (not active)

SMILES: O=C(Nc1ccc(-c2csc(Nc3ccccc3)n2)cc1)c1cc([N+](=O)[O-])cc(C(F)(F)F)c1
CC50 [4]: 14.6 µM (active)

SMILES: O=C(O)c1c(Cl)c(Cl)c(Cl)c(Cl)c1C(=O)Nc1ccc2cn[nH]c2c1
AC50 [2]: 3.98 µM (inconclusive)
AC50 [3]: 3.98 µM (inconclusive)

SMILES: COc1ccc(CN2/C(=N/C(=O)CCC3CCCC3)SC3CS(=O)(=O)CC32)cc1 (configuration not stated)
EC50 [1]: > 195 µM (not active)

SMILES: O=c1c(-c2ccccc2)nc2cnc(N3CCNCC3)nc2n1-c1ccccc1
AC50 [2]: 20 µM (inconclusive)

SMILES: C1CCC(Nc2nnnn2C2CCCCC2)CC1
EC50 [1]: > 195 µM (not active)

SMILES: Cc1cc2cc3c(cc2nc1SCC(=O)N1c2ccccc2CC1C)OCO3 (configuration not stated)
CC50 [4]: 34 µM (active)

SMILES: CCOc1ccc(N2CSC(=S)N(c3ccc(OCC)cc3)C2)cc1
EC50 [1]: > 195 µM (not active)

SMILES: COc1ccc(-c2cc(C(F)(F)F)n3ncc(C(=O)N(C)Cc4ccccc4)c3n2)cc1
CC50 [4]: 32.9 µM (active)

SMILES: O=C(COC(=O)c1ccccc1SCC(=O)N1CCCC1)NC1CCS(=O)(=O)C1 (configuration not stated)
EC50 [1]: > 195 µM (not active)

SMILES: CCCCNc1nc2cccnc2s1
EC50 [1]: > 195 µM (not active)

SMILES: CCc1nc2ccc(C(=O)O)cc2nc1CC
EC50 [1]: 6.93 µM (active)

SMILES: CCOC(=O)C1CCCN(c2nc3ccccc3nc2C(C#N)C(=O)OCCOC)C1 (configuration not stated)
CC50 [4]: 41.7 µM (active)

SMILES: Cc1ccc2nc(NC(=O)c3ccc(NS(=O)(=O)c4cccs4)cc3)sc2c1
CC50 [4]: 25.1 µM (active)

SMILES: CCOC(=O)c1c(C)[nH]c(C(=O)N2CCc3cc(OC)c(OC)cc3C2)c1C
CC50 [4]: 34.8 µM (active)

SMILES: Cc1c([C@@H](C)[C@H]2NC[C@H](C)C[C@@H]2O)ccc2c1C[C@@H]1[C@H]2CC=C2C[C@@H](O)CC[C@@]21C
AC50 [2]: 3.16 µM (inconclusive)

SMILES: O=C(Nc1ccc(/C=C/c2nc3ccccc3o2)cc1)c1c(F)cccc1F
CC50 [4]: > 50 µM (active)

SMILES: C=CC/N=C1\S/C(=C\c2ccc(Cl)cc2)C(=O)N1CC=C
CC50 [4]: 44.3 µM (active)

SMILES: CC(=O)C1C(=O)c2c(cccc2[N+](=O)[O-])/C1=N\c1ccc(S(N)(=O)=O)cc1 (configuration not stated)
EC50 [1]: > 195 µM (not active)

SMILES: O=C(Nc1ccc(N2CCCC2)c(Cl)c1)c1ccc(Br)o1
CC50 [4]: 30.6 µM (active)
EC50 [8]: 1.63 µM (active)
EC50 [9]: > 60 µM (not active)

The next lines start with the values.

AC50 [2]: 0.398 µM (inconclusive)
AC50 [3]: 22.4 µM (inconclusive)
SMILES: COC(=O)CCC(=O)Nc1cccc(C(=O)Nc2cccc(Cl)c2)c1

EC50 [1]: > 195 µM (not active)
SMILES: CC1(C)CC(=O)c2cc(OCC(=O)N3CCN(c4ccccc4F)CC3)ccc2O1

AC50 [5]: 17.8 µM (inconclusive)
AC50 [6]: 14.1 µM (inconclusive)
AC50 [7]: 35.5 µM (inconclusive)
SMILES: O=C(O)/C=C/c1cn(-c2ncc(C(F)(F)F)cc2Cl)c2ccccc12

EC50 [1]: > 195 µM (not active)
SMILES: CC1CCCCN1CC(=O)Nc1ccccc1Sc1ccccc1 (configuration not stated)

EC50 [1]: > 195 µM (not active)
SMILES: O=C(COC(=O)C1=COCCO1)Nc1ccc2c(c1)OCO2

EC50 [1]: > 195 µM (not active)
SMILES: CCN(CC)C(=O)COC(=O)c1ccc(C)c(NC(=O)c2ccco2)c1

EC50 [1]: > 195 µM (not active)
SMILES: O=C(O)c1cccc(NC(=S)N/N=C/c2cccnc2)c1

AC50 [2]: 28.2 µM (inconclusive)
SMILES: O=C(Cc1ccccc1)N/N=C/c1cc(Br)c(Br)o1

AC50 [2]: 2.82 µM (inconclusive)
SMILES: O=S(=O)(NC(=Nc1ccc(F)cc1F)c1ccc(Cl)cc1)c1ccccc1

EC50 [1]: > 195 µM (not active)
SMILES: Cc1cccc(-c2nnc(NC(=O)c3cccs3)s2)c1

EC50 [1]: > 195 µM (not active)
SMILES: CC(C)c1ccc(NC2(C#N)C(=O)Nc3ccccc32)cc1 (configuration not stated)

AC50 [5]: 12.6 µM (inconclusive)
AC50 [6]: 20 µM (inconclusive)
AC50 [7]: 15.8 µM (inconclusive)
SMILES: Cc1ccc2nc(-c3ccccc3)c(CN(C)C)c(O)c2c1

EC50 [1]: 26 µM (active)
SMILES: CN(C)S(=O)(=O)c1ccc(C(=O)OCCCNC2=NS(=O)(=O)c3ccccc32)cc1

EC50 [1]: 45.5 µM (active)
SMILES: CC1CCN(S(=O)(=O)c2ccc(C(=O)Nc3nnc(-c4ccccn4)o3)cc2)CC1
